Activity calls are given as the source filed them.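 Rule for the calls: active = cell-killing curve crosses a set limit at a concentration no more than twice the top valid dose; inconclusive = flat curve with a 30 to 70% loss, or a poor fit; inactive = signal rising instead of falling, and the rest.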
Assay: cytotoxicity in EWS/Fli1-dependent TC71 cells – cell-based, luminescence, cherry-picked samples, retest, confirmation (AID 720570)
Conditions: TC71 Ewing sarcoma viability, CellTiter-Glo ATP, 72 h; at 23.5 µM (top of the series)
With O=S(=O)(c1ccc(F)cc1)N1C[C@H]2[C@@H](c3ccccc31)[C@H](CO)N2Cc1ccccc1Cl the activity change, negative = cytotoxicity was -20.2% (inactive).
With N#C[C@H]1N[C@H](CO)[C@H]1c1ccc(C#Cc2ccccc2F)cc1 the activity change, negative = cytotoxicity was -18.8% (inactive).
For COC(=O)C[C@@H]1CC[C@@H]2[C@@H](COc3ccc(NC(=O)Nc4ccccc4C)cc3C(=O)N2C)O1, the activity change, negative = cytotoxicity was 14.2% (inactive).
For COC(=O)C[C@@H]1CC[C@@H]2[C@@H](COc3ccc(NC(=O)Nc4cccc(Cl)c4)cc3C(=O)N2C)O1, the activity change, negative = cytotoxicity was -4.34% (inactive).

Same assay, conditions: TC71 Ewing sarcoma viability, CellTiter-Glo ATP, 72 h; at 26 µM (top of the series)
In the case of C[C@@H]1CN([C@@H](C)CO)S(=O)(=O)c2ccc(C#CCN(C)C)cc2O[C@@H]1CN(C)Cc1ccncc1, the activity change, negative = cytotoxicity is reported as -4.92% (inactive).
For O=c1oc2cc(O)ccc2s1, the activity change, negative = cytotoxicity was -26.8% (inactive).
For CC(=O)Nc1cc(C(=O)NCc2ccco2)ccc1Sc1ccc(F)cc1, the activity change, negative = cytotoxicity was -1.03% (inactive).
In the case of CC(=O)Nc1ccc(OCC(=O)N(CC(C)C)C2CCS(=O)(=O)C2)cc1 (stereo unspecified), the activity change, negative = cytotoxicity is reported as 11.9% (inactive).
In the case of C[C@@H]1CN([C@@H](C)CO)S(=O)(=O)c2ccc(C#Cc3ccncc3)cc2O[C@H]1CN(C)S(=O)(=O)c1ccccc1, the activity change, negative = cytotoxicity is reported as -2.93% (inactive).
For COc1cc(/C=N/NS(=O)(=O)c2ccc(C)cc2)ccc1OCc1cccc(C(=O)O)c1, the activity change, negative = cytotoxicity was -3.76% (inactive).
With S=C(NCCN1CCOCC1)Nc1ccccc1Cl the activity change, negative = cytotoxicity was 11.4% (inactive).
With COc1cc(/C=N/NC(=O)c2csc3c2CCCC3)cc(OC)c1O the activity change, negative = cytotoxicity was -7.47% (inactive).
For Cc1sc2nc(CN3CCC(C)CC3)nc(Cl)c2c1C, the activity change, negative = cytotoxicity was 16.2% (inactive).
With COC(=O)C[C@@H]1CC[C@@H]2[C@H](COc3ccc(NC(=O)c4ccc(F)cc4)cc3C(=O)N2C)O1 the activity change, negative = cytotoxicity was 15.1% (inactive).
In the case of COC(=O)[C@H]1[C@H](CO)[C@H]2Cn3c(ccc(-c4ccccc4F)c3=O)[C@@H]1N2CC1CCCC1, the activity change, negative = cytotoxicity is reported as 4.06% (inactive).
For CC(C)c1ccccc1NC(=O)COC(=O)CCN1C(=O)/C(=C\C=C\c2ccccc2)SC1=S, the activity change, negative = cytotoxicity was 19.1% (inactive).
For O=C(Nc1cccc(Oc2ccc3c(c2)C(=O)NC3=O)c1)c1cccs1, the activity change, negative = cytotoxicity was 9.53% (inactive).
In the case of CCCn1c(C)cc(C(=O)CN2C(=O)c3ccccc3S2(=O)=O)c1C, the activity change, negative = cytotoxicity is reported as 5.44% (inactive).
In the case of Nc1ccc2oc(-c3cc(Br)ccc3Cl)nc2c1, the activity change, negative = cytotoxicity is reported as -14.7% (inactive).
For O=C(CCCN1C(=O)S/C(=C\c2ccccc2)C1=O)NNC(=O)c1ccccc1O, the activity change, negative = cytotoxicity was 5.39% (inactive).
In the case of Nc1ccc(Oc2ccccc2-c2ccccc2)cc1, the activity change, negative = cytotoxicity is reported as 5.42% (inactive).
With COc1ccccc1-c1cn(CC[C@H]2CC[C@@H](NC(=O)C3CCCC3)[C@@H](CO)O2)nn1 the activity change, negative = cytotoxicity was 12.9% (inactive).
With N#C[C@@H]1[C@H](c2ccc(C#Cc3cccc(F)c3)cc2)[C@@H](CO)N1C(=O)C1CCCC1 the activity change, negative = cytotoxicity was -12.2% (inactive).
In the case of O=C(O)c1ccc(N/N=C/c2c[nH]c3ccccc23)cc1, the activity change, negative = cytotoxicity is reported as 19.2% (inactive).
In the case of C=CCOC(=O)c1sc(NC(=O)c2ccc(OC)cc2)nc1C, the activity change, negative = cytotoxicity is reported as -3.67% (inactive).
In the case of COC(=O)C[C@@H]1CC[C@@H]2[C@H](COc3ccc(NC(=O)c4ccc(F)c(F)c4)cc3C(=O)N2C)O1, the activity change, negative = cytotoxicity is reported as 9.2% (inactive).
For C=CCOc1ccccc1C(=O)/C=C1/C(=O)Nc2ccccc21, the activity change, negative = cytotoxicity was -30.1% (inactive).
In the case of COc1ccc(/C=C2\SC(=S)N(CCCC(=O)NC3CCCC3)C2=O)cc1OC, the activity change, negative = cytotoxicity is reported as -1.55% (inactive).
With CC(=O)c1ccc(N=Nc2ccc(C)cc2)cc1 the activity change, negative = cytotoxicity was 13.2% (inactive).
In the case of Cc1c(-c2nc(-c3ccc(C(C)(C)C)cc3)no2)n(C)oc1=O, the activity change, negative = cytotoxicity is reported as -0.627% (inactive).
With Cc1ccc(/C=C2\SC(=S)N(CCC(=O)NNC(=O)c3ccccc3O)C2=O)cc1 the activity change, negative = cytotoxicity was -7.03% (inactive).
In the case of COc1cc(OC)cc(-c2cc3nc(C)c(CCC(=O)NCc4ccccc4)c(C)n3n2)c1, the activity change, negative = cytotoxicity is reported as 9.58% (inactive).
In the case of CC(C)NC(=O)N(C)C[C@@H]1Oc2cc(C#Cc3ccc(F)cc3)ccc2S(=O)(=O)N([C@H](C)CO)C[C@H]1C, the activity change, negative = cytotoxicity is reported as 4.97% (inactive).
In the case of O=C(O)c1ccc(N/N=C/c2ccc(OC(=O)c3cccc(Cl)c3)cc2)cc1, the activity change, negative = cytotoxicity is reported as -1.51% (inactive).
For C[C@@H]1CN([C@H](C)CO)C(=O)c2cc(NC(=O)CCCCCC(=O)Nc3ccccc3N)ccc2O[C@H]1CN(C)S(=O)(=O)c1ccc(Cl)cc1, the activity change, negative = cytotoxicity was -12.6% (inactive).
For COc1ccc(/C=C2\SC(=S)N(CCCC(=O)Nc3ccc(O)cc3)C2=O)cc1, the activity change, negative = cytotoxicity was 0.096% (inactive).
For O=C(Nc1nc(-c2ccc(F)c(F)c2)cs1)c1ccc(OCC2CCCO2)cc1 (stereo unspecified), the activity change, negative = cytotoxicity was 1.49% (inactive).
With CC(=O)c1ccc(N(C(=O)Cn2nnc3ccccc32)C(C(=O)NCc2ccccc2)c2ccccn2)cc1 (stereo unspecified) the activity change, negative = cytotoxicity was 9.64% (inactive).
With COC(=O)C[C@@H]1CC[C@@H]2[C@@H](COc3ccc(NC(=O)Nc4cccc(F)c4)cc3C(=O)N2C)O1 the activity change, negative = cytotoxicity was 5.61% (inactive).
With CCOc1ccc(-c2noc(CCC(=O)O)n2)cc1 the activity change, negative = cytotoxicity was 14.8% (inactive).
For CCOC(=O)C1CCCCN1C(=O)CCc1c(C)nc2cc(-c3ccccc3)nn2c1C (stereo unspecified), the activity change, negative = cytotoxicity was 11.3% (inactive).
With CC(C)c1ccc(OCc2cccc(C(=O)N/N=C/c3cccnc3)c2)cc1 the activity change, negative = cytotoxicity was 0.747% (inactive).
In the case of COC(=O)C[C@@H]1CC[C@@H]2[C@H](COc3ccc(NC(=O)Nc4cccc(C#N)c4)cc3C(=O)N2C)O1, the activity change, negative = cytotoxicity is reported as 5.41% (inactive).
In the case of O=C(NCc1ccccn1)c1ccc(CNS(=O)(=O)c2cccc(Cl)c2)cc1, the activity change, negative = cytotoxicity is reported as 3.71% (inactive).
With O=C(Cc1nn[nH]n1)c1ccccc1O the activity change, negative = cytotoxicity was 13.8% (inactive).
With COc1ccc(/C=C2\SC(=O)N(CCCC(=O)Nc3ccc(C(=O)O)cc3)C2=O)cc1 the activity change, negative = cytotoxicity was 21.2% (inactive).
With CCOc1ccc(-c2cc(CCCC(=O)NCc3ccc(C)cc3)no2)cc1 the activity change, negative = cytotoxicity was -3.16% (inactive).
For O=C(Nc1ccc(NC(=O)c2cc3ccccc3o2)cc1)c1ccc2c(c1)OCCO2, the activity change, negative = cytotoxicity was -3.21% (inactive).
For C(=N\Nc1ccc2ccccc2n1)/c1ccc2c(c1)OCO2, the activity change, negative = cytotoxicity was -9% (inactive).
For CCS(=O)(=O)N1Cc2ccccc2CC1C(=O)Nc1nnc(SCc2ccc(C#N)cc2)s1 (stereo unspecified), the activity change, negative = cytotoxicity was 21.3% (inactive).
In the case of CCc1ccc(/C=C2\SC(=S)N(CCCC(=O)N3CCN(C)CC3)C2=O)cc1, the activity change, negative = cytotoxicity is reported as -30.1% (inactive).
With Cc1ccsc1C(=O)OCC(=O)NCCC1=CCCCC1 the activity change, negative = cytotoxicity was 9.59% (inactive).
With O=c1c2ccccc2oc2cc(C#CC3(O)CCCCC3)ccc12 the activity change, negative = cytotoxicity was -17.6% (inactive).
In the case of C[C@H](CO)N1C[C@H](C)[C@H](CN(C)Cc2ccc(C(F)(F)F)cc2)Oc2c(NS(=O)(=O)c3ccc(Cl)cc3)cccc2C1=O, the activity change, negative = cytotoxicity is reported as 46.6% (inactive).
With CCCN(C)C[C@H]1Oc2ncc(-c3ccccc3)cc2C(=O)N([C@@H](C)CO)C[C@H]1C the activity change, negative = cytotoxicity was 13% (inactive).
For O=C(CNC(c1ccccc1)c1ccccc1)Nc1ccccc1-c1ccccc1, the activity change, negative = cytotoxicity was 11.2% (inactive).
For C[C@@H]1CN([C@@H](C)CO)C(=O)c2cccc(NC(=O)Nc3ccccc3)c2O[C@@H]1CN(C)Cc1ccc(-c2ccccc2)cc1, the activity change, negative = cytotoxicity was 20.4% (inactive).
In the case of CCOc1cc2[nH]c(=S)n(Cc3ccc(C(=O)NCCN(CC)CC)cc3)c(=O)c2cc1OCC, the activity change, negative = cytotoxicity is reported as 11.4% (inactive).
With CCOc1ccc(/C=C2\CCc3ccccc3C2=O)cc1 the activity change, negative = cytotoxicity was 4.42% (inactive).
With CN(C)C(=O)c1ccc(-c2ccccc2[C@@H]2[C@@H](CO)N(C(=O)C3CC3)[C@H]2C#N)cc1 the activity change, negative = cytotoxicity was 25.5% (inactive).
For COc1ccc(Nc2oc(COc3ccccc3OC)nc2C#N)cc1, the activity change, negative = cytotoxicity was 0.131% (inactive).
With Cc1ccc2oc(/N=C(\N)NC(=O)C(C)(C)C)nc2c1 the activity change, negative = cytotoxicity was 2.46% (inactive).
In the case of COC(=O)C[C@H]1CC[C@@H](NC(=O)Nc2ccc(C(F)(F)F)cc2)[C@H](CO)O1, the activity change, negative = cytotoxicity is reported as -8.02% (inactive).
With Cc1ccsc1/C=N/Nc1cccc(C(=O)O)c1 the activity change, negative = cytotoxicity was -2.07% (inactive).
With CN(C)c1ccc(N=Nc2ccccc2Br)cc1 the activity change, negative = cytotoxicity was -15.6% (inactive).
With Cc1ccc(NC(=O)CCN2CCCCC2)cc1 the activity change, negative = cytotoxicity was 3.68% (inactive).
For CN(C)C(=O)c1cccc(-c2ccc(C3[C@@H]4CN(Cc5nccs5)C[C@H]3N4)cc2)c1 (stereo partly specified), the activity change, negative = cytotoxicity was 0.197% (inactive).
For N#C[C@@H]1[C@H](c2ccc(C#Cc3ccccc3F)cc2)[C@@H](CO)N1C(=O)c1cccnc1, the activity change, negative = cytotoxicity was 13.1% (inactive).
For O=C(CNC(=O)Cc1ccccc1)N=Nc1c(O)n(Cc2ccc3c(c2)OCO3)c2ccccc12, the activity change, negative = cytotoxicity was 8.54% (inactive).
In the case of COCCOC(=O)N1C(=O)[C@@]2(c3cc(C#CCC(C(=O)OC)C(=O)OC)ccc31)[C@H](c1ccccc1OCCO)N1[C@H](c3ccccc3)[C@H](c3ccccc3)OC(=O)[C@H]1[C@@H]2C(=O)N1CCN(c2ncccn2)CC1, the activity change, negative = cytotoxicity is reported as 16.1% (inactive).
With N#Cc1cccc(-c2ccc(C3[C@@H]4CN(C(=O)Cc5ccncc5)C[C@H]3N4)cc2)c1 (stereo partly specified) the activity change, negative = cytotoxicity was 0.809% (inactive).
For COC(=O)C[C@@H]1CC[C@@H]2[C@H](COc3ccc(NC(=O)Nc4ccc(C#N)cc4)cc3C(=O)N2C)O1, the activity change, negative = cytotoxicity was 4.12% (inactive).
In the case of COc1ccc(NS(=O)(=O)c2cc(NC(=O)CNC(=O)c3cccc(OC)c3)ccc2C)cc1, the activity change, negative = cytotoxicity is reported as -0.075% (inactive).
For CCCNC(=O)[C@@H]1[C@@H](CO)[C@@H]2Cn3c(ccc(-c4ccccc4)c3=O)[C@H]1N2C(=O)CC, the activity change, negative = cytotoxicity was 0.956% (inactive).
For COc1ccc2oc(-c3ccccc3)cc(=O)c2c1, the activity change, negative = cytotoxicity was 1.87% (inactive).
In the case of CCOC(=O)Cc1csc(NC(=S)NC(=O)c2ccc(C)cc2)n1, the activity change, negative = cytotoxicity is reported as 19.7% (inactive).
